# Measurements published in patent publication US5168102A, “Endocrine manipulation to improve body composition of poultry” (priority 1990, dated 1992).
# Like-named read-outs stand apart in the source and are kept apart here.
# Description: Referring now to broiler chickens as a benchmark for the beneficial effects of this invention, it must be noted that these chickens grow from a weight of 30 to 50 grams at hatching to about 1.5-3 or even as much as 5 kilograms of body weight at market age. Of this market weight, 15-20 wt.-% is protein, 2-3 wt.-% is inorganic (showing up as ash in proximate analysis of body composition), and more than 10 wt.-% (e.g. 10-20 wt.-%) is fat, which means that the protein:fat ratio (by weight) is likely to be at or below 1.5:1 and certainly well below 2:1.
compound,measurement,setting,value
"N[C@@H](Cc1cc(I)c(Oc2ccc(O)c(I)c2)c(I)c1)C(=O)O [T3, 3,3',5-triiodo-L-thyronine]",effect on weight gain,0.1 ppm,no significant adverse effect upon weight gain can be detected
same,protein content of the carcass relative to fat content,0.1 ppm,improved relative to fat content
same,effect on growth rate,0.25 ppm,virtually no statistically significant adverse effect on growth rate
same,effect on weight gain,1 ppm,some deviation from normal weight gain is observed
